In article PMC7512555 (mBio, 2020):

Tests used:
[1] = target: T1, TP0037 (TpD-LDH; rTP0037) (Treponema pallidum, UniProt O83080); experiment: colorimetric NADH-formation kit assay (A575/A605); format: biochemical; details: co-substrate NAD+, 37°C, 30 min
T1 construct: gene ldhD; full-length, residues 1-331, in pProEX-HTb (vector-derived tag); monomer 39,190 g/mol, homodimer in solution

[2] = target: the molecule itself; experiment: static light scattering; Dynapro Nanostar, 25°C, storage buffer (20 mM HEPES pH 7.5, 100 mM NaCl, 2 mM BOG), 1.54 mg/ml, three technical replicates; DLS monitored simultaneously

Molecule: C[C@@H](O)C(=O)O [D-lactate]
- colorimetric NADH-formation kit assay (A575/A605) [1]: monitor the amount of NADH formation in the presence of NAD^+, D-lactate, and the enzyme

Molecule: C[C@H](O)C(=O)O [L-lactate]
- colorimetric NADH-formation kit assay (A575/A605) ([1]; very weak substrate): only about one-thousandth of the activity was observed when using L-lactate as the substrate

B1: TP0037, D-lactate dehydrogenase of Treponema pallidum (enzyme, UniProt O83080 1-331, looked up)
chain: MRCVVFNLREEEAPYVEKWKQSHPGVVVDTYEEPLTAKNKELLKGYEGLVVMQFLAMEDEVYDYMGACKLKVLSTRTAGFDMYNATLLKKHGIRLTNVPSYSPNAIGEYALAAALQLTRHAREIETFVRKRDFRWQKPILSKELRCSRVGILGTGRIGQAAARLFKGVGAQVVGFDPYPNDAAKEWLTYVSMDELLSTSDVISLHMPATKDSHHLINAKTIAQMKDGVYLVNTARGAVIDSQALLDSLDKGKIAGAALDAYEFEGPYIPKDNGNNPITDTVYARLVAHERIIYTPHIAFYTETAIENMVFNSLDACTTVLRGEPCAAEIKL
notes: TP0037 (D-lactate dehydrogenase), Treponema pallidum, amino acid residues 1 to 331, amplified from genomic DNA; called full-length in the results; also called rTP0037; TpD-LDH; source: E. coli BL21(DE3), purified to apparent homogeneity
- stoichiometry N [2]: 2
